Experimental data from paper PMC6863598, “Binding of Monovalent and Bivalent Ligands by Transthyretin Causes Different Short- and Long-Distance Conformational Changes” (Journal of Medicinal Chemistry, 2019).
Blank lines part the entries; values can stand above or below the compound they belong to.

Assays:
TTR HBP = target: T1, TTR HBP (Homo sapiens, UniProt P02766); assay: NMR observation of ligand binding to the recombinant TTR halogen binding pocket; conditions: DSS added for reference purposes, Figure S4
T1 construct: hexahistidine (TEV-cleavable) (cleaved yes); made in house; host or cells: E. coli BL21 Star (DE3), peTM11 plasmid
Experimental: NMR spectra were acquired at 310 K with a Bruker AVANCE 700 and 800 MHz NMR spectrometer on a U-^2H, ^13C, ^15N-labeled recombinant TTR samples at concentrations of 50–90 μM in PBS buffer at pH 7.0 and 7.4 in a mixture H2O/D2O 90/10%.
The addition of 4,4-dimethyl-4-silapentane-1-sulfonic acid (DSS) for reference purposes led to the observation that DSS binds to the TTR HBP (see Figure S4).

TTR [1] = conditions: simultaneous occupancy of the two binding sites; cited from earlier work
TTR [2] = tested on: TTR; parameters: method as in PMID 28298647; conditions: cited from earlier work
[3] = target: TTR (human wild type TTR isolated from serum) (Homo sapiens, UniProt P02766); assay: Surface plasmon resonance (Biacore T200) of tafamidis binding to immobilised biotinylated TTR; conditions: for k2 (off-rate, first binding site) / k4 (off-rate, second binding site): dissociation data fitted to a double exponential
Experimental: Data were fitted to the model described by Scheme 1. The measured fractional response is then given by {[AB + (2ABB)]/Ai} where Ai is the notional concentration of TTR on the surface. Rate parameters were determined from the global fitting of the association data to the binding equilibria as defined by Scheme 1. […]
Surface Plasm on Resonance. Human wild type TTR isolated from serum (Scipac) was biotinylated according to the method of Alhamadsheh et al . 3 using EZ -link sulfo NHS -LC biotin (Thermoscientific) and immobilised in […]
phosphate buffered saline (PBS), 0.05% Tween20 to achieve 3000-4000 response units of biotinylated TTR bound to the SA-chip surface following the manufacturer’s instructions. To block unoccupied sites, biocytin (50 µM) was flowed across the chip (at a flow rate of 50 µl/min, for 1 min). Finally, the chip was washed with Hepes Buffer Saline, pH 7. 4 (+ 0. 05 % Tween20) running buffer until the SPR signal reached a stable background level.
For all procedures, the running buffer was used at a flow rate of […]. The immobilised TTR surface was […]
30 µl/min) and then running buffer alone to monitor the dissociation phase. Between injections sufficient time

[4] = SPR, ± standard deviation, listed as Tafamidis

Compound: C[Si](C)(C)CCCS(=O)(=O)O [DSS, 4,4-dimethyl-4-silapentane-1-sulfonic acid]
binding to the TTR HBP (TTR HBP): binds

Compound: O=C(O)c1ccccc1Nc1cc(Cl)c(OCCCCCCCOc2c(Cl)cc(Nc3ccccc3C(=O)O)cc2Cl)c(Cl)c1 [mds84]
nature of binding by TTR (TTR [1]): pseudo-irreversible | protection against the proteolytic cleavage of the peptide bond 48–49 (TTR [2]): highest protection

k3 (on-rate, second binding site) ([3]; SPR global fit, Scheme 1, ± standard deviation): (3.5 ± 1.0) × 10^6 M^–1 s^–1 | k1 (on-rate, first binding site) ([3]; SPR global fit, Scheme 1, ± standard deviation, three independent experiments): (4.5 ± 2.2) × 10^6 M^–1 s^–1 | difference in the observed affinities at the two sites ([3]; SPR, Kd2 vs Kd1): 7 fold | k2 (off-rate, first binding site) ([3]; SPR, ± standard deviation): 0.008 s^–1 | k4 (off-rate, second binding site) ([3]; SPR, ± standard deviation): 0.06 s^–1 | k2 (off-rate, first binding site) [3, 4]: (0.008 ± 0.001) s^–1 | k4 (off-rate, second binding site) [3, 4]: (0.060 ± 0.006) s^–1 | k2 (off-rate measured by SPR) ([3]; first site, Figure 7 legend): 0.008 Hz | k4 (off-rate measured by SPR) ([3]; second site, Figure 7 legend): 0.06 Hz
Compound: O=C(O)c1ccc2nc(-c3cc(Cl)cc(Cl)c3)oc2c1 [tafamidis]
